# Calls of active or inactive are those of the source. The calls are words filed in the database; no cut-off is given here.
# Tests used:
# [1] = tested on: Bombus terrestris; experiment: Toxicity against worker Bombus terrestris (bumblebee) assessed as mortality at 240 mg a.i./l, po administered through pollen for 11 weeks measured everyday for 3 days followed by once a week for 11 weeks; format: functional
# [2] = tested on: Bombus terrestris; experiment: Toxicity against worker Bombus terrestris (bumblebee) assessed as mortality at 240 mg a.i./l, po administered through sugar water measured up to 1 week; format: functional, organism-based
# [3] = tested on: Bombus terrestris; experiment: Toxicity against worker Bombus terrestris (bumblebee) assessed as mortality at 240 mg a.i./l, po administered through sugar water for 11 weeks measured everyday for 3 days followed by once a week for 11 weeks; format: functional
# [4] = tested on: Bombus terrestris; experiment: Contact toxicity against worker Bombus terrestris (bumblebee) assessed as mortality at 240 mg a.i./l applied on the dorsal thorax for 11 weeks measured everyday for 3 days followed by once a week for 11 weeks; format: functional
# [5] = tested on: Apis mellifera; experiment: Toxicity against Apis mellifera (honey bee) assessed per bee; format: functional
# [6] = tested on: Bombus terrestris; experiment: Contact toxicity against Bombus terrestris (bumblebee) assessed per bee; format: functional
# [7] = tested on: Apis mellifera; experiment: Contact toxicity against Apis mellifera (honey bee) assessed per bee; format: functional
# [8] = tested on: Bombus terrestris; experiment: Toxicity against worker Bombus terrestris (bumblebee) assessed as reduction in reproduction at 240 mg a.i./l, po administered through sugar water for 11 weeks measured once a week for 11 weeks relative to control; format: functional, organism-based
# [9] = tested on: Bombus terrestris; experiment: Toxicity against worker Bombus terrestris (bumblebee) assessed as mortality at 240 mg a.i./l, po administered through pollen measured after 8 weeks; format: functional; details: 1344 h
# [10] = tested on: Bombus terrestris; experiment: Toxicity against worker Bombus terrestris (bumblebee) assessed as reduction in reproduction at 240 mg a.i./l, po administered through pollen for 11 weeks measured once a week for 11 weeks; format: functional, organism-based
# [11] = tested on: Bombus terrestris; experiment: Contact toxicity against worker Bombus terrestris (bumblebee) assessed as reduction in reproduction at 240 mg a.i./l applied on the dorsal thorax for 11 weeks measured once a week for 11 weeks relative to control; format: functional, organism-based
# [12] = tested on: Bombus terrestris; experiment: Toxicity against worker Bombus terrestris (bumblebee) assessed as mortality at 240 mg a.i./l, po administered through pollen measured after 5 weeks; format: functional; details: 840 h
# [13] = tested on: Bombus terrestris; experiment: Toxicity against worker Bombus terrestris (bumblebee) assessed as mortality at 55 mg a.i./l, po administered through pollen for 11 weeks measured everyday for 3 days followed by once a week for 11 weeks; format: functional, organism-based
# [14] = tested on: Bombus terrestris; experiment: Toxicity against worker Bombus terrestris (bumblebee) assessed as mortality at 55 mg a.i./l, po administered through sugar water measured after 9 to 11 weeks; format: functional, organism-based
# [15] = tested on: Bombus terrestris; experiment: Toxicity against worker Bombus terrestris (bumblebee) assessed as mortality at 55 mg a.i./l, po administered through sugar water for 11 weeks measured everyday for 3 days followed by once a week for 11 weeks; format: functional
# [16] = tested on: Bombus terrestris; experiment: Contact toxicity against worker Bombus terrestris (bumblebee) assessed as mortality at 55 mg a.i./l applied on the dorsal thorax for 11 weeks measured everyday for 3 days followed by once a week for 11 weeks; format: functional
# [17] = tested on: Bombus terrestris; experiment: Toxicity against po dosed worker Bombus terrestris (bumblebee) administered through sugar water for 11 weeks measured everyday for 3 days followed by once a week for 11 weeks; format: functional
# [18] = tested on: Bombus terrestris; experiment: Toxicity against worker Bombus terrestris (bumblebee) assessed as reduction in reproduction at 55 mg a.i./l, po administered through pollen for 11 weeks measured once a week for 11 weeks; format: functional; design: scale not given: the % may be the effect or the level left
# [19] = tested on: Bombus terrestris; experiment: Toxicity against worker Bombus terrestris (bumblebee) assessed as reduction in reproduction at 55 mg a.i./l, po administered through sugar water for 11 weeks measured once a week for 11 weeks relative to control; format: functional, organism-based
# [20] = tested on: Bombus terrestris; experiment: Contact toxicity against worker Bombus terrestris (bumblebee) assessed as reduction in reproduction at 55 mg a.i./l applied on the dorsal thorax for 11 weeks measured once a week for 11 weeks relative to control; format: functional, organism-based
# [21] = tested on: Bombus terrestris; experiment: Toxicity against worker Bombus terrestris (bumblebee) assessed as mortality at 50 mg a.i./l, po administered through sugar water measured after 4 to 6 weeks; format: functional, organism-based
# [22] = tested on: Bombus terrestris; experiment: Toxicity against worker Bombus terrestris (bumblebee) assessed as mortality at 50 mg a.i./l, po administered through sugar water for 11 weeks measured everyday for 3 days followed by once a week for 11 weeks; format: functional
# [23] = tested on: Bombus terrestris; experiment: Contact toxicity against worker Bombus terrestris (bumblebee) assessed as mortality at 50 mg a.i./l applied on the dorsal thorax for 11 weeks measured everyday for 3 days followed by once a week for 11 weeks; format: functional
# [24] = tested on: Apis mellifera; experiment: Toxicity against Apis mellifera (honey bee) assessed as adverse efffect at 250 mg/l; format: functional, organism-based
# [25] = n-octanol-water distribution coefficient, log KOW of the compound; format: physicochemical; details: read-out: log KOW
# [26] = tested on: Bombus terrestris; experiment: Toxicity against worker Bombus terrestris (bumblebee) assessed as reduction in reproduction at 50 mg a.i./l, po administered through pollen for 11 weeks measured once a week for 11 weeks; format: functional; design: scale not given: the % may be the effect or the level left
# [27] = tested on: Bombus terrestris; experiment: Toxicity against worker Bombus terrestris (bumblebee) assessed as mortality at 50 mg a.i./l, po administered through pollen for 11 weeks measured everyday for 3 days followed by once a week for 11 weeks; format: functional, organism-based
# [28] = tested on: Bombus terrestris; experiment: Contact toxicity against worker Bombus terrestris (bumblebee) assessed as reduction in reproduction at 50 mg a.i./l applied on the dorsal thorax for 11 weeks measured once a week for 11 weeks relative to control; format: functional, organism-based
# [29] = tested on: Bombus terrestris; experiment: Toxicity against worker Bombus terrestris (bumblebee) assessed as reduction in reproduction at 50 mg a.i./l, po administered through sugar water for 11 weeks measured once a week for 11 weeks relative to control; format: functional; design: scale not given: the % may be the effect or the level left
# [30] = tested on: Bombus terrestris; experiment: Toxicity against worker Bombus terrestris (bumblebee) assessed as mortality at 125 mg a.i./l, po administered through pollen for 11 weeks measured everyday for 3 days followed by once a week for 11 weeks; format: functional, organism-based
# [31] = tested on: Bombus terrestris; experiment: Toxicity against worker Bombus terrestris (bumblebee) assessed as mortality at 125 mg a.i./l, po administered through sugar water for 11 weeks measured everyday for 3 days followed by once a week for 11 weeks; format: functional
# [32] = tested on: Bombus terrestris; experiment: Contact toxicity against worker Bombus terrestris (bumblebee) assessed as mortality at 125 mg a.i./l applied on the dorsal thorax for 11 weeks measured everyday for 3 days followed by once a week for 11 weeks; format: functional
# [33] = tested on: Bombus terrestris; experiment: Toxicity against worker Bombus terrestris (bumblebee) assessed as reduction in reproduction at 125 mg a.i./l, po administered through sugar water for 11 weeks measured once a week for 11 weeks relative to control; format: functional, organism-based
# [34] = tested on: Bombus terrestris; experiment: Toxicity against worker Bombus terrestris (bumblebee) assessed as reduction in reproduction at 125 mg a.i./l, po administered through pollen for 11 weeks measured once a week for 11 weeks; format: functional, organism-based
# [35] = tested on: Bombus terrestris; experiment: Contact toxicity against worker Bombus terrestris (bumblebee) assessed as reduction in reproduction at 125 mg a.i./l applied on the dorsal thorax for 11 weeks measured once a week for 11 weeks relative to control; format: functional, organism-based
compound,measurement,setting,value
CCOCn1c(-c2ccc(Cl)cc2)c(C#N)c(Br)c1C(F)(F)F [CHLORFENAPYR],mortality at 240 µg/mL,[1],90%
same,Activity,[2],Active
same,mortality at 240 µg/mL,[3],95%
same,mortality at 240 µg/mL,[4],< 25%
same,LD50,[5],0.2 µg
same,LD50,[6],>100 µg
same,LD50,[7],<1 µg
same,Activity,[8],Active
same,mortality at 240 µg/mL,[9],90%
same,Activity,[10],Active
same,Activity,[11],inactive
same,mortality at 240 µg/mL,[12],50%
CCOc1cc(C(C)(C)C)ccc1C1COC(c2c(F)cccc2F)=N1 (stereo unspecified) [ETOXAZOLE],Activity,[13],inactive
same,Activity,[14],Active
same,mortality at 55 µg/mL,[15],95%
same,mortality at 55 µg/mL,[16],< 25%
same,LC50,[17],4.4 mgAi/L
same,NOAEL,[17],0.55 mgAi/L
same,Activity,[18],25%
same,Activity,[19],Active
same,Activity,[20],Active
Cc1nn(C)c(Oc2ccccc2)c1/C=N/OCc1ccc(C(=O)OC(C)(C)C)cc1 [FENPYROXYMATE],Activity,[21],Active
same,mortality at 50 µg/mL,[22],95%
same,mortality at 50 µg/mL,[23],< 25%
same,Activity,[24],inactive
same,logP,[25],5.01
same,Activity,[26],50%
same,Activity,[27],inactive
same,Activity,[28],inactive
same,Activity,[29],90%
O=C(NC(=O)c1c(F)cccc1F)Nc1ccc(CO/N=C(/c2ccc(Cl)cc2)C2CC2)cc1 [FLUCYCLOXURON],Activity,[30],inactive
same,mortality at 125 µg/mL,[31],25%
same,mortality at 125 µg/mL,[32],< 25%
same,Activity,[33],inactive
same,Activity,[34],Active
same,Activity,[35],Active
